Nine molecules from patent publication US20250092044A1, “Kinase Inhibitors” (Incyte Corporation, priority 2023, published 2025) can be followed below.

pIC50: −log10 of the molar value. Bounds are passed on as bounds.

Assay [1] has as its target pseudo-kinase domain (JH2) of human V617F mutant JAK2 (Homo sapiens (Human), UniProt O60674, F794H/V617F/W659A/W777A). The assay is described as follows: JAK2 LanthaScreen JH2-V617F Binding Assay. Particulars: read-out: JH2 V617F Bind IC50. On the procedure:
JAK2 JH2-V617F binding assay utilizes pseudo-kinase domain (JH2, amino-acids 536-812 with 3 surface mutations W659A, W777A, F794H) of human V617F mutant JAK2 expressed as C-terminal His-Avi-tagged, biotinylated protein in a baculovirus expression system (BPS Bioscience, Catalog #79498). The assay was conducted in black 384-well polystyrene plates in a final reaction volume of 20 μL. JAK2 JH2-V617F (0.26 nM) was incubated with compounds (100 nL serially diluted in DMSO) in the presence of 50 nM Fluorescent JAK2-JH2 Tracer (MedChem Express Catalog #HY-102055) and 0.25 nM Streptavidin-Tb cryptate (Cisbio Part #610SATLB) in assay buffer (50 mM Tris, pH=7.5, 10 mM MgCl2, 0.01% Brij-35, 0.1% BSA, 1 mM EGTA, 5% Glycerol and 5 mM DTT). Non-specific binding was accessed in the presence of 2 mM ATP. After incubation for 1 hour at 25° C., LanthaScreen signals were read on a PHERAstar FS plate reader (BMG LABTECH). Data was analyzed with IDBS XLfit and GraphPad Prism 5.0 software using a four parameter dose response curve to determine IC50 for each compound.
In general terms: In TR-FRET formats the signal depends on donor and acceptor labels being close together.

In assay [2] the test system is TRKA. The assay is described as follows: TRKA Enzymatic Assay. Type of assay: biochemical. On the procedure:
(§1) The kinase assays were carried out at 24° C. temperature in assay buffer (HEPES 50 mM, pH 7.0, NaN3 0.02%, BSA 0.01%, Orthovanadate 0.1 mM, DTT 1 mM, MgCl2 10 mM) in a final volume of 10 μL. Testing compounds were prepared by serial dilution in DMSO and transferred to the plate wells by ECHO liquid handler (Labcyte) with 0.5% DMSO in the final assay. […]. Reactions were initiated by the addition of 5 μL ATP in assay buffer. The final 10 μL kinase reaction consisted of 0.58 nM TRKA, 1 mM ATP, 500 nM TK Substrate-biotin and SEB reagent 62.5 nM in assay buffer. […] After 60 minutes incubation at room temperature, the product activity was determined by measuring the fluorescence at 620 nm and 665 nm on Pherastar microplate reader (BMG Labtech). A ratio was calculated (665/620 nm) for each well. Wells with DMSO only served as the positive controls and wells containing no ATP were used as negative controls. IC50 determination was performed by fitting the curve of percent control activity versus the log of the compound concentration using the Gene data.

Assay [3] addresses TRKA (Homo sapiens (Human), UniProt P04629). The assay is described as follows: TRKA Enzymatic Assay. The class given is biochemical. Particulars: 1 mM ATP. How it is done:
as §1

In assay [4] the test system is FLT3. As to the kind of experiment: FLT3 Enzymatic Assay. The class given is biochemical. On the procedure: (§2) The kinase assays were carried out at room temperature in assay buffer (HEPES 50 mM, pH 7.0, NaN3 0.02%, BSA 0.01%, Orthovanadate 0.1 mM, DTT 1 mM, MgCl2 10 mM) in a final volume of 10 μL. Testing compounds were prepared by serial dilution in DMSO and transferred to the plate wells by ECHO liquid handler (Labcyte) with 0.5% DMSO in the final assay. […]. Reactions were initiated by the addition of 5 μL ATP in assay buffer. The final 10 μL kinase reaction consists of 0.011 nM FLT3, 1 mM ATP, 500 nM TK Substrate-biotin and SEB reagent 62.5 nM in assay buffer. […] The plates were then sealed and centrifuged at 1800 rpm for 2 minutes. After 60 minutes incubation at room temperature, the product activity was determined by measuring the fluorescence at 620 nm and 665 nm on Pherastar microplate reader (BMG Labtech). A ratio is calculated (665/620 nm) for each well. Wells with DMSO only were served as the positive controls and wells containing no ATP were used as negative controls. IC50 determination was performed by fitting the curve of percent control activity versus the log of the compound concentration using the GraphPad Prism 7.0 software.

Assay [5] addresses FLT3 (Homo sapiens (Human), UniProt P36888). As to the kind of experiment: FLT3 Enzymatic Assay. Type of assay: biochemical. Particulars: 1 mM ATP. How it is done:
as §2

Assay [6] relates to STAT5 (Tyr694) phosphorylation in SET-2 cells. As to the kind of experiment: STAT5 (Tyr694) Phosphorylation Cell Based Assay. The following applies: Homo sapiens, 2 hours, read-out: SET2 IC50. On the procedure: SET-2 cells was purchased from DSMZ (Germany). RPMI1640 medium, Fetal Bovine Serum and 384-white sold flat-bottom small volume plate were purchased from Thermo Fisher Scientific (Waltham, MA). Phospho-STAT5 (Tyr694) HTRF kit was purchased from Perkin Elmer (Waltham, MA).
SET-2 cells were cultured in RPMI media with 20% FBS at 37° C. in humidified incubator supplied with 5% CO2. On the day of assay, the cells were centrifuged to remove the culture media and resuspended with prewarmed RPMI with 10% FBS. Testing compounds were prepared by serial dilution in DMSO and 50 nL/well test compounds were transferred to the 384 white low volume cell culture plate (Greiner Bio-one) by ECHO liquid handler (Labcyte). The cells were then dispensed with Multidrop (Thermo Fisher, Waltham, MA) at 10 μL/well (7×10^6 cells/mL) with 0.5% DMSO in the final assay. After the treated cells were incubated for 2 hours at 37° C./5% CO2 incubator, 4 μL/well supplemented lysis buffer (100× blocking buffer diluted 25 fold in 4× lysis buffer, Perkin Elmer) were added and incubated at room temperature for 90 min on orbital shaker at 600 rpm. Phospho-STAT5 Cryptate antibody and Phospho-STAT5 d2 antibody (1:1 vol/vol) were premixed and diluted 20 fold with in the detection buffer (Perkin Elmer). 4 μL of the premixed antibody solution were added to each well followed with 24 hours incubation at room temperature on orbital shaker at 600 rpm. The product activity was determined by measuring the fluorescence at 620 nm and 665 nm on Pherastar microplate reader (BMG Labtech). A ratio is calculated (665/620) for each well. Wells with DMSO only served as the positive controls and wells containing high concentration of control compound were used as negative controls. IC50 determination was performed by fitting the curve of percent control activity versus the log of the compound concentration using the GraphPad Prism 7.0 software.

Assay [7] has as its target catalytic domain (JH1) of human JAK2 (Homo sapiens (Human), UniProt O60674). As to the kind of experiment: JAK2 LanthaScreen JH1 Binding Assay. Particulars: read-out: JH1 Bind IC50. On the procedure: JAK2 JH1 binding assay utilizes catalytic domain (JH1, amino acids 826-1132) of human JAK2 expressed as N-terminal FLAG-tagged, biotinylated protein in a baculovirus expression system (Carna Biosciences, Product #08-445-20N). The assay was conducted in black 384-well polystyrene plates in a final reaction volume of 20 μL. JAK2 JH1 (1.5 nM) was incubated with compounds (100 nL serially diluted in DMSO) in the presence of 50 nM fluorescent JAK2-JH1 tracer and 0.5 nM Streptavidin-Tb cryptate (Cisbio Part #610SATLB) in assay buffer (50 mM Tris, pH=7.5, 10 mM MgCl2, 0.01% Brij-35, 0.1% BSA, 1 mM EGTA, 5% Glycerol and 5 mM DTT). Non-specific binding was accessed in the presence of 2 mM ATP. After incubation for 2 hours at 25° C., LanthaScreen signals were read on a PHERAstar FS plate reader (BMG LABTECH). Data was analyzed with IDBS XLfit and GraphPad Prism 5.0 software using a four parameter dose response curve to determine IC50 for each compound.

Chain of catalytic domain (JH1) of human JAK2 (O60674 826-1132): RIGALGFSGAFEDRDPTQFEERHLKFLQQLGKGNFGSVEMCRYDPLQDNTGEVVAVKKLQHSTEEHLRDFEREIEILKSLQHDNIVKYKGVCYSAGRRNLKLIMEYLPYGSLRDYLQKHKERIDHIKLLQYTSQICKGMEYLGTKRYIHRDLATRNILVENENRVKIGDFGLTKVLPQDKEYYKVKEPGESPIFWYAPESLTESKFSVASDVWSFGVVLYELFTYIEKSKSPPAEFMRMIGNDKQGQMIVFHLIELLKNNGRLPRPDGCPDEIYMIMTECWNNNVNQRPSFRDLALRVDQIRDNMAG
Chain of FLT3 (Homo sapiens (Human), UniProt P36888) (P36888 27-993, species assumed): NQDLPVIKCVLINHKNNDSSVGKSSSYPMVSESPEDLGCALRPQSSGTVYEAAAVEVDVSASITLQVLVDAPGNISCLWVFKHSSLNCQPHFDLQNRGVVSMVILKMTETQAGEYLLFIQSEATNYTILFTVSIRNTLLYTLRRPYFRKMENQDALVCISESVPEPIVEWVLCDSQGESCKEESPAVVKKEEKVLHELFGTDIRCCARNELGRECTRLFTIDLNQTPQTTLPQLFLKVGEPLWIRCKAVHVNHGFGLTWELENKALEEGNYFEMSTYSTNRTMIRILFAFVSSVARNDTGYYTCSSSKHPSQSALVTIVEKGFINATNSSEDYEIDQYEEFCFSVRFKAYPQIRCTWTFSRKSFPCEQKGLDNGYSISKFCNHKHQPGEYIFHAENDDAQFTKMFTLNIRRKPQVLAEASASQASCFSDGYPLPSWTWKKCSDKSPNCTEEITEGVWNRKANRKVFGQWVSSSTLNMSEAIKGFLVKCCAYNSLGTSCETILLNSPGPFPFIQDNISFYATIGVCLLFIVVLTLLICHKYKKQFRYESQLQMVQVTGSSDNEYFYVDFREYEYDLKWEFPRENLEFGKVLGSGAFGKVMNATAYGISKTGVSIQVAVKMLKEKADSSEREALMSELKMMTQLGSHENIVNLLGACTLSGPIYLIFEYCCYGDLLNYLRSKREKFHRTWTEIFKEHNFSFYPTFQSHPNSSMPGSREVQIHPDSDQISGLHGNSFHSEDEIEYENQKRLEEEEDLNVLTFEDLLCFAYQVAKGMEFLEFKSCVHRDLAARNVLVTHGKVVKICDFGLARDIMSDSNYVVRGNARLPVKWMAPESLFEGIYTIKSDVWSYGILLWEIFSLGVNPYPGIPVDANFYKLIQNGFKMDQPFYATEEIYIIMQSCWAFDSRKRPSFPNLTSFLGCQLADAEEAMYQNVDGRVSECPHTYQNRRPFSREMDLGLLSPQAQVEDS
Chain of TRKA (Homo sapiens (Human), UniProt P04629) (P04629 33-796, species assumed): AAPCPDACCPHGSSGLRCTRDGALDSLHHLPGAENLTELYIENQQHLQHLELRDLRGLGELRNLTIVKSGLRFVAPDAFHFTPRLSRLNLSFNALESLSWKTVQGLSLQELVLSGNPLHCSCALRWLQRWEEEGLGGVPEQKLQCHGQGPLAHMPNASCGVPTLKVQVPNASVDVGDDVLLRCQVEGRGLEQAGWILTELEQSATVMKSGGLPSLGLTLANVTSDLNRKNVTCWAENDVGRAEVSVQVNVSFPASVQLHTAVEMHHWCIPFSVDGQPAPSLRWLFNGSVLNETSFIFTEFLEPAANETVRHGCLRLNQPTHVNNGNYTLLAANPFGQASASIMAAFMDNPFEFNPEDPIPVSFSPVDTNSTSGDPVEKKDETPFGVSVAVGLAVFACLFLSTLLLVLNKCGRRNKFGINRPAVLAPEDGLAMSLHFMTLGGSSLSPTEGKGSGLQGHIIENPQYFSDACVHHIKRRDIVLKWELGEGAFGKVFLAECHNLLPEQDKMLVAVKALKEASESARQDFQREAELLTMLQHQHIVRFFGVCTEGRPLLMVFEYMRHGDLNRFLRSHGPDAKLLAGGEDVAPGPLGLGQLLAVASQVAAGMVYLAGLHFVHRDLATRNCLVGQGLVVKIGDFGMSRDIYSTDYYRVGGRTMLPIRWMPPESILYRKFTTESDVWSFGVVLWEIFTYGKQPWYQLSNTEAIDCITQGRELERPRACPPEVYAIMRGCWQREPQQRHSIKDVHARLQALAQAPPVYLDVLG
Chain of pseudo-kinase domain (JH2) of human V617F mutant JAK2 (O60674 536-812 V617F/W659A/W777A/F794H): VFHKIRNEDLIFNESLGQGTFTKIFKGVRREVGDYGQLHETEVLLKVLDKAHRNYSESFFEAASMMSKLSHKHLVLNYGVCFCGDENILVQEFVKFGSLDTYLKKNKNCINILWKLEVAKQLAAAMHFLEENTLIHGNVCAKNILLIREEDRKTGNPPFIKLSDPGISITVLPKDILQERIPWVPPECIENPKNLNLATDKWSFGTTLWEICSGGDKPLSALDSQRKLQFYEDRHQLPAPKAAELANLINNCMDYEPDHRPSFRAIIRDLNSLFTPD

On to `Cn1cc(-c2[nH]c3ncc4c(c3c2-c2ccc3c(cnn3C)c2)n([C@H]2CC[C@@H](CC#N)CC2)c(=O)n4C)cn1` [Comparative Example C, reference compound], for which the pIC50 in assay [1] is no less than 8.00; against TRKA [3], greater than 7.60; against FLT3 [5], greater than 7.60. Besides, the “Selectivity TRKA/JH2 V617F” value in the assay with TRKA [2] was “* (selectivity of ≤500-fold)”. In addition, the “Selectivity FLT3/JH2 V617F” value with FLT3 [4] is on record as “* (selectivity of ≤500-fold)”.
On to `CCn1c(=O)n(C2CCCC2)c2c3cc(-c4ccc(CN5CCC(S(C)(=O)=O)CC5)cc4)[nH]c3ncc21` [Comparative Example G, reference compound], for which the pIC50 in assay [1] was less than 6.00.
For `Cn1c(=O)n(C2CCCC2)c2c3c(-c4ccccc4)c(-c4ccc(CN5CCC(S(C)(=O)=O)CC5)cc4)[nH]c3ncc21` [Comparative Example H, reference compound], the pIC50 was 6.10 to 6.52 in assay [6], no less than 8.00 in assay [1], 6.60 to 7.60 at TRKA [3] and 6.60 to 7.60 against FLT3 [5]. Further, the “Selectivity TRKA/JH2 V617F” value in the assay with TRKA [2] is given as “* (selectivity of ≤500-fold)”. Besides, the “Selectivity FLT3/JH2 V617F” value in the assay on FLT3 [4] is listed as “* (selectivity of ≤500-fold)”.
As to `Cn1ncc2cc(-c3c(-c4ccc(CN5CCC(S(C)(=O)=O)CC5)cc4)[nH]c4ncc5c(c34)n(C3CCCC3)c(=O)n5C)ccc21` [Comparative Example I, reference compound], the pIC50 in assay [6] is 6.10 to 6.52; in assay [1], no less than 8.00; on TRKA [3], greater than 7.60; on FLT3 [5] it was greater than 7.60. In addition, the “Selectivity TRKA/JH2 V617F” value in the assay with TRKA [2] is given as “* (selectivity of ≤500-fold)”. Also, the “Selectivity FLT3/JH2 V617F” value in the assay with FLT3 [4] was “* (selectivity of ≤500-fold)”.
Turning to `CNC(=O)c1ccc(-c2[nH]c3ncc4c(c3c2-c2cccc(F)c2)n([C@@H]2CC[C@@H](NC(=O)OC)C2)c(=O)n4C)cc1F` [Example 1, Methyl ((1R,3R)-3-(7-(3-fluoro-4-(methylcarbamoyl)phenyl)-8-(3-fluorophenyl)-3-methyl-2-oxo-3,6-dihydroimidazo[4,5-d]pyrrolo[2,3-b]pyridin-1(2H)-yl)cyclopentyl)carbamate], the pIC50 in assay [6] is less than 6.10; in assay [1] it was no less than 8.00; in assay [7] it was less than 6.00.
Taken in the same sequence, the figures for `COC(=O)N[C@@H]1CC[C@@H](n2c(=O)n(C)c3cnc4[nH]c(-c5ccc(C(=O)NC(C)C)c(F)c5)c(-c5cccc(F)c5)c4c32)C1` [Example 2, Methyl ((1R,3R)-3-(7-(3-fluoro-4-(isopropylcarbamoyl)phenyl)-8-(3-fluorophenyl)-3-methyl-2-oxo-3,6-dihydroimidazo[4,5-d]pyrrolo[2,3-b]pyridin-1(2H)-yl)cyclopentyl)carbamate] were less than 6.10, no less than 8.00 and less than 6.00.
With `CNC(=O)c1c(F)cc(-c2[nH]c3ncc4c(c3c2-c2cccc(F)c2)n([C@@H]2CC[C@@H](NC(=O)OC)C2)c(=O)n4C)cc1F` [Example 3, Methyl ((1R,3R)-3-(7-(3,5-difluoro-4-(methylcarbamoyl)phenyl)-8-(3-fluorophenyl)-3-methyl-2-oxo-3,6-dihydroimidazo[4,5-d]pyrrolo[2,3-b]pyridin-1(2H)-yl)cyclopentyl)carbamate], the pIC50 in assay [6] was less than 6.10; in assay [1] it was no less than 8.00; in assay [7], less than 6.00.
Taken in the same sequence, the figures for `COC(=O)N[C@@H]1CC[C@@H](n2c(=O)n(C)c3cnc4[nH]c(-c5cc(F)c(C(=O)NC6CC6)c(F)c5)c(-c5cccc(F)c5)c4c32)C1` [Example 4, Methyl ((1R,3R)-3-(7-(4-(cyclopropylcarbamoyl)-3,5-difluorophenyl)-8-(3-fluorophenyl)-3-methyl-2-oxo-3,6-dihydroimidazo[4,5-d]pyrrolo[2,3-b]pyridin-1(2H)-yl)cyclopentyl)carbamate] were less than 6.10, no less than 8.00 and less than 6.00.
The matching figures for `COC(=O)N[C@@H]1CC[C@@H](n2c(=O)n(C)c3cnc4[nH]c(-c5ccc(C(=O)N6CC(OC)C6)c(F)c5)c(-c5ccc6c(cnn6C(C)C)c5)c4c32)C1` [Example 17, Methyl ((1R,3R)-3-(7-(3-fluoro-4-(3-methoxyazetidine-1-carbonyl)phenyl)-8-(1-isopropyl-1H-indazol-5-yl)-3-methyl-2-oxo-3,6-dihydroimidazo[4,5-d]pyrrolo[2,3-b]pyridin-1(2H)-yl)cyclopentyl)carbamate]: less than 6.10, no less than 8.00 and less than 6.00.

By pIC50 is commonly meant the negative decadic logarithm of the IC50, by convention in mol/L.
